In PubChem BioAssay (NCI) one finds TGI and GI50 data, which are given here for eight compounds.

Assay in all cases: inhibition of tumour cell growth, NCI panel, 48 h
Assay [1] relates to A549 NSCLC.
The subject of assay [2] is CAKI-1 renal.
Assay [3] has as its system COLO 205 colon.
For assay [4], the system named is DU-145 prostate.
The subject of assay [5] is HCC-2998 colon.
Assay [6] concerns MDA-MB-435.
The subject of assay [7] is SNB-19 CNS.
Assay [8] has as its system SNB-75 CNS.
Assay [9] relates to SW-620 colon.
Assay [10] deals with UACC-62 melanoma.

Several values for one entry are separate records, joined by “and”; a condition that tells them apart may be missing. Identical values can stand only once.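 Assay format: 96-well plates, 48-hour exposure. GI50 marks 50% less growth. TGI marks complete inhibition of growth.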

`CC(=O)[C@@]1(O)CC[C@H]2[C@@H]3C[C@H](C)C4=CC(=O)CC[C@]4(C)[C@H]3[C@@H](O)C[C@@]21C`: the TGI in [1], in assay [2], in assay [3], in assay [4], in assay [5] and in [6] was > 100000 nM each time. The TGI in assay [7], in assay [8], in assay [9] and in [10] was > 100000 nM each time.

Regarding `COC(=O)c1c2c(c(C)[n+]([O-])c1C)C(=O)C=C(NCc1ccc(F)c(Cl)c1)C2=O`, the GI50 in assay [1] was 352 nM; in [2] it was 55.9 nM; in [3] it was 245 nM; in [4], 566 nM; in [5], 187 nM; in assay [6], 51.5 nM. For the same compound, the GI50 was 801 nM in assay [7], 1690 nM in [8], 112 nM in assay [9] and 32.5 nM in [10]. Further, the TGI in assay [1] was 1950 nM; in assay [2], 1900 nM; in assay [3] it was 863 nM; in [4], 2070 nM; in assay [5], 1410 nM; in assay [6], 173 nM. Moreover, the TGI in assay [7] turned out to be 2070 nM; in assay [8], 3090 nM; in assay [9], 1320 nM; in [10], 662 nM.

Consider `O=C1NC(O)C(c2c[nH]c3ccccc23)=C1c1c[nH]c2ccccc12` (centres undefined), for which the GI50 in assay [1], in assay [2], in [3], in assay [4], in [5] and in assay [6] was > 25000 nM in each case. Also, the GI50 in assay [7] was > 25000 nM; in assay [8], > 25000 nM; in assay [9] it was > 25000 nM; in [10] it was 8010 nM. The TGI in assay [1], in [2], in assay [3], in assay [4], in [5] and in assay [6] was > 25000 nM each time. The TGI in assay [7], in [8], in [9] and in [10] was > 25000 nM each time.

`COc1cc2cc(Oc3ccc(NC(=O)Nc4cccc(C(F)(F)F)c4)cc3)c(C)nc2cc1OC`: the GI50 is 1470 nM in assay [1]; 1320 nM in assay [2]; 1120 nM in assay [3]; 2780 nM in [4]; 2590 nM in [5]; 1630 nM in assay [6]. The GI50 in assay [7] was 2190 nM; in assay [8], 1170 nM; in [9] it was 2280 nM; in assay [10], 1840 nM. For the same compound, the TGI in [1] was found to be 6490 nM; in assay [2], 4290 nM; in [3], 2400 nM; in assay [4] it was 15800 nM; in assay [5], 50000 nM; in assay [6], 10100 nM. For the same compound, the TGI in assay [7] is 15000 nM; in [8] it was 6180 nM; in [9], 11100 nM; in [10], 10900 nM.

For `COc1c(OC)c(OC)c2c(c1OC)c(=O)c1ccccc1n2C`, the TGI in assay [1], in assay [2], in assay [3], in [4], in [5] and in assay [6] was > 100000 nM in each case. Also, the TGI in [7], in assay [8], in assay [9] and in assay [10] was > 100000 nM each time.

On to `COc1ncc(-c2ccc3nccc(-c4ccnnc4)c3c2)cc1NS(=O)(=O)c1ccc(F)cc1F`, for which the GI50 in assay [1] is 8.82 nM and < 10 nM; in [2], 5.21 nM and < 10 nM; in assay [3] it was 5.61 nM and < 10 nM; in assay [4], 11.9 nM and 16.4 nM; in assay [5] it was 9.97 nM and 13.3 nM; in assay [6], 10.5 nM and < 11.7 nM. Further, the GI50 in assay [7] was 39.7 nM and 12.7 nM; in assay [8], 1.33 nM and < 10 nM; in assay [9] it was 15.1 nM and 22.5 nM; in assay [10], 2.17 nM and < 10 nM. For the same compound, the TGI in assay [1] is 1490 nM and 1320 nM; in assay [2], 746 nM and 1700 nM; in assay [3] it was 542 nM and 257 nM; in [4], > 10000 nM and 13000 nM; in assay [5] it was 275 nM and 572 nM; in [6], 1130 nM and 863 nM. For the same compound, the TGI was 13.5 nM and < 15.6 nM in [8]; > 4470 nM and 1920 nM in [9]; 19 nM and 26.3 nM in assay [10].

Take `O=C(c1ccco1)c1nc2cc(Cl)ccc2[n+]([O-])c1C(F)(F)F`: the GI50 in assay [1] was 63300 nM; in [2], 28300 nM; in assay [3] it was > 100000 nM; in assay [4], 76500 nM; in assay [5], 18500 nM; in assay [6] it was > 100000 nM. For the same compound, the GI50 in [7] is 69000 nM; in [8] it was 46000 nM; in assay [9] it was 39100 nM; in assay [10], 40700 nM. For the same compound, the TGI in [1] was > 100000 nM; in [2], 73900 nM; in assay [3], > 100000 nM; in assay [4], > 100000 nM; in [5], 34900 nM; in [6], > 100000 nM. Moreover, the TGI in [7], in assay [8], in assay [9] and in assay [10] was > 100000 nM throughout.

On to `CC[C@H](Nc1nc(NCc2cnc(C)cc2C)c2ncn(C(C)C)c2n1)[C@@H](C)O`, for which the GI50 in [1] was 353 nM; in assay [2], 269 nM; in assay [3], 247 nM; in assay [4], 387 nM; in assay [5], 291 nM; in [6], 362 nM. Moreover, the GI50 was 318 nM in assay [7], 159 nM in [8], 235 nM in assay [9] and 304 nM in assay [10]. Moreover, the TGI in assay [1] was > 100000 nM; in assay [2] it was > 100000 nM; in assay [3], 640 nM; in assay [4] it was > 100000 nM; in assay [5], 2000 nM; in assay [6], 10800 nM. Further, the TGI was > 100000 nM in [7], 407 nM in assay [8], > 21900 nM in [9] and 1880 nM in [10].
